Measurements: ChEMBL document CHEMBL2062367, “Stigonemapeptin, an Ahp-containing depsipeptide with elastase inhibitory activity from the bloom-forming freshwater cyanobacterium Stigonema sp” (J Nat Prod, 2012)
Active and inactive are the calls of the source.

Tests used:
[1] = species on record: Sus scrofa; assay: Inhibition of pig pancreatic trypsin using Nalpha-benzoyl-DL-arginine-4-nitroanilide as substrate at 10 uM incubated for 15 mins prior to substrate addition measured ever 30 secs for 30 mins by spectroscopy
[2] = species on record: Homo sapiens; assay: Inhibition of 20S proteasome at 25 uM
[3] = system: HT-29; assay: Cytotoxicity against human HT-29 cells at 25 uM; type: functional, cell-based

C/C=C1/NC(=O)[C@@H](NC(=O)[C@H](CCC(N)=O)NC(=O)[C@@H]2CCCN2C=O)[C@@H](C)OC(=O)[C@H](C(C)C)NC(=O)[C@H](Cc2ccc(O)cc2)N(C)C(=O)[C@H](Cc2ccccc2)N2C(=O)[C@H](CC[C@H]2O)NC1=O
inactive: inhibition [1] | inhibition [2] | Activity [3]
